According to patent publication US20260297081A1, “COMPOUNDS AND METHODS OF TREATING CANCERS” (Cullgen Inc., priority 2023, published 2026):

Tests used:
Format in all cases: cell-based
[1] = tested on: T47D cells; assay: Anti-proliferation (viability) of ER+ breast cancer T47D cells, 6 days (Table 7, FIG. 2B); settings: Homo sapiens, 144 h; T47D cells, 6 days, 10-point serial dilution; read-out: GI IC50 in T47D
Protocol: To evaluate anti-proliferation activities of heterobifunctional compounds, NSCLC Calu-1 or ER+ breast cancer T47D cells were treated with selected heterobifunctional compounds following a 10-point serial dilution for 3 or 6 days, respectively.
To verify that heterobifunctional compound-mediated degradation is dependent on the binding to CDK4-cyclin D complex, a negative control compound, CPD-143, which is derived from active heterobifunctional compound CPD-10 was designed. CPD-143 bears the same DDB1 ligand and linker as CPD-10 but with a modified warhead to impair the binding of the control compound to CDK4.

[2] = target: T1, CDK4 (Homo sapiens, UniProt P11802+Q16531); assay: HiBiT detection of HiBiT-tagged CDK4 protein level in MCF7 cells, 16 hours (Table 8); design: expressed in transfected cells; host or cells: MCF7; settings: MCF7 cells stably expressing HiBiT tagged target proteins; for activity at 0.01 µM: 10 nM, read-out: % CDK4 Relative Level (10 nM); for activity at 0.1 µM: 100 nM, read-out: % CDK4 Relative Level (100 nM)
Protocol: HiBiT detection system quantitatively measures total amounts of HiBiT-tagged proteins using a luminescent based method. MCF7 cells stably expressing HiBiT tagged target proteins were treated with heterobifunctional compounds at indicated concentrations for 16 hours, then lysed with Nano-Glo HiBiT Lytic detection reagents.
Target sequence in this assay (P11802 whole entry): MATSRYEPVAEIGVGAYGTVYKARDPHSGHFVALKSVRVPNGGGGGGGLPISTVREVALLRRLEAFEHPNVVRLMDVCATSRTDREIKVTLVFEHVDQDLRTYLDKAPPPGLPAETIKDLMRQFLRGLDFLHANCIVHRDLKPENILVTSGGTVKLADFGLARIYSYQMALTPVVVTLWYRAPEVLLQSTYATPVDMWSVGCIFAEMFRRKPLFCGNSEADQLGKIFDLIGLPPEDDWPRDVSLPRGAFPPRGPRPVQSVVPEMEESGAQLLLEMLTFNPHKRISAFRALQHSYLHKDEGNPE
Target sequence in this assay (P24385 whole entry partner): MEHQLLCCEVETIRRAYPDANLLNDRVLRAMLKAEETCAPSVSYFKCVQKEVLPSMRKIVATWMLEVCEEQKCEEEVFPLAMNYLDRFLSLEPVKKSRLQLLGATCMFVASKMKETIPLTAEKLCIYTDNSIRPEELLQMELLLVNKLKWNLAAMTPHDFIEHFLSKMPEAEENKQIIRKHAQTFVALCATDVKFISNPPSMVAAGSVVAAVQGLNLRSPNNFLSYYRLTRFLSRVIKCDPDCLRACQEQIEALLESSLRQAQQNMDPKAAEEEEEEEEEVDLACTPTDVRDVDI
Target sequence in this assay (Q16531 2-1140 limits assumed): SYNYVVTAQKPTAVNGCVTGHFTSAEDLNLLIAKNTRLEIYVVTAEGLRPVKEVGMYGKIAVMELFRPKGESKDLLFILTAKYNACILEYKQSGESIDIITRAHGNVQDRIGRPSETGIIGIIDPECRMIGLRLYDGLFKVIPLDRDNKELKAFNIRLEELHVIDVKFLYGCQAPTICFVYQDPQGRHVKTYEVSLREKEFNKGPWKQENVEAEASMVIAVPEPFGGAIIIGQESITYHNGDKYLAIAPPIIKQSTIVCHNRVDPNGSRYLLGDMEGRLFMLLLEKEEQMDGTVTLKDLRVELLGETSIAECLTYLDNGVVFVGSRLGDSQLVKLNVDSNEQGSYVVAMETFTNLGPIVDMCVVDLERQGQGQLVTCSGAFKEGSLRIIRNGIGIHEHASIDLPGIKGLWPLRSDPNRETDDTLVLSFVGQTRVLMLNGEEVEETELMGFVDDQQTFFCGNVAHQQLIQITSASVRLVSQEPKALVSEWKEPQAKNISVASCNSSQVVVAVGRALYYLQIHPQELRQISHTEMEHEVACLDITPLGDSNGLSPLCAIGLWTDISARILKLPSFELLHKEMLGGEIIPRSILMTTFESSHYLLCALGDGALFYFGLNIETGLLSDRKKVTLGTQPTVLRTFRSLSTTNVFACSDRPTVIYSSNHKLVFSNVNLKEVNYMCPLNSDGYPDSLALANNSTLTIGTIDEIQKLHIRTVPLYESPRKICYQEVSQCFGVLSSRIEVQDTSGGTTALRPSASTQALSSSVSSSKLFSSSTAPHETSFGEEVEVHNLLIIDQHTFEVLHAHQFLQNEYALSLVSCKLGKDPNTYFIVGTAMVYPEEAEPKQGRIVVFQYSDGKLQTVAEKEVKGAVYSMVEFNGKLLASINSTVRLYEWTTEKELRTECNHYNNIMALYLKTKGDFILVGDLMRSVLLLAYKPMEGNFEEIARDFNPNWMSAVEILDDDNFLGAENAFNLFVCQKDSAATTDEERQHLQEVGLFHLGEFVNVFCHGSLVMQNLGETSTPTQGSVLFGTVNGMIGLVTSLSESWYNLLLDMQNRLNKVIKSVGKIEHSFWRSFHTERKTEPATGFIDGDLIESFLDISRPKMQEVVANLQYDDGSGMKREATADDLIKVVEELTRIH

[3] = tested on: MCF7 cells; assay: Anti-proliferation (viability) of MCF7 cells (Table 7, FIG. 2B); settings: Homo sapiens, MCF7, MCF7 cells, 3-6 days, 10-point serial dilution; read-out: GI IC50 in MCF-7
[4] = target: T1, CDK4; assay: CDK4 percentage degradation in Calu-1 cells (Table 6); design: Cells that express cyclin D1-3 and CDK4/6 proteins were treated with heterobifunctional compounds; endogenous in cells; host or cells: Calu-1; settings: 16 hours
In short: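 Percentage degradation of Cyclin D1 and CDK4 derived from densitometry of ECL Western blots on lysates of Calu-1 cells. Treatment was 16 h with compound at either 40 nM or 200 nM.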
Target sequence in this assay (P11802 2-303 limits assumed): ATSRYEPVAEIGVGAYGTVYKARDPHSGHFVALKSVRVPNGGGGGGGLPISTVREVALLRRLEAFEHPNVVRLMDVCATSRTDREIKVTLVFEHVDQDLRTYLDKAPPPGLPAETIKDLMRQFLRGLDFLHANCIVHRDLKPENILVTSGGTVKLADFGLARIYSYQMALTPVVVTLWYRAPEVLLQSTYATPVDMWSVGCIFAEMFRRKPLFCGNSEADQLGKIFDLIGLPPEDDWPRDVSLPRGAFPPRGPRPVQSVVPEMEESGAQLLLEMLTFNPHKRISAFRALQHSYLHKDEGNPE
Target sequence in this assay (P24385 whole entry partner): as the sequence (P24385 whole entry partner) above
Target sequence in this assay (Q16531 2-1140 limits assumed): as the sequence (Q16531 2-1140 limits assumed) above

[5] = tested on: Calu-1 cells; assay: Anti-proliferation (viability) of NSCLC Calu-1 cells, 3 days (Table 7, FIG. 2B); settings: Homo sapiens, 72 h; Calu-1 cells, 3 days, 10-point serial dilution; read-out: GI IC50 in Calu-1
In short: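 Viability after a 10-point dilution series of heterobifunctional compounds, with exposure of 6 days for ER+ breast T47D cells and 3 days for NSCLC Calu-1 cells.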

## CC(=O)c1c(C)c2cnc(Nc3ccc(N4CCN(CC(=O)NCC5CC(Nc6c(C(=O)Nc7cc(C)n(C)n7)cccc6C(F)(F)F)C5)CC4)cn3)nc2n(C2CCCC2)c1=O (stereo not drawn) [CPD-266, 2-((3-((2-(4-(6-((6-acetyl-8-cyclopentyl-5-methyl-7-oxo-7,8-dihydropyrido[2,3-d]pyrimidin-2-yl)amino)pyridin-3-yl)piperazin-1-yl)acetamido)methyl)cyclobutyl)amino)-N-(1,5-dimethyl-1H-pyrazol-3-yl)-3-(trifluoromethyl)benzamide]
[1]
  IC50: ≥ 100 nM

## CC(=O)c1c(C)c2cnc(Nc3ccc(N4CCN(CC(=O)NCC5CC(Nc6c(F)cccc6C(=O)Nc6cc(C)n(C)n6)C5)CC4)cn3)nc2n(C2CCCC2)c1=O (stereo not drawn) [CPD-265, 2-((3-((2-(4-(6-((6-acetyl-8-cyclopentyl-5-methyl-7-oxo-7,8-dihydropyrido[2,3-d]pyrimidin-2-yl)amino)pyridin-3-yl)piperazin-1-yl)acetamido)methyl)cyclobutyl)amino)-N-(1,5-dimethyl-1H-pyrazol-3-yl)-3-fluorobenzamide]
[1]
  IC50: ≥ 100 nM

## CC(=O)c1c(C)c2cnc(Nc3ccc(N4CCN(CC(=O)NCC5CC(Nc6nc(NC(C)C)ccc6C(=O)Nc6cc(C)on6)C5)CC4)cn3)nc2n(C2CCCC2)c1=O (stereo not drawn) [CPD-282, 2-((3-((2-(4-(6-((6-acetyl-8-cyclopentyl-5-methyl-7-oxo-7,8-dihydropyrido[2,3-d]pyrimidin-2-yl)amino)pyridin-3-yl)piperazin-1-yl)acetamido)methyl)cyclobutyl)amino)-6-(isopropylamino)-N-(5-methylisoxazol-3-yl)nicotinamide]
[2]
  activity at 0.01 µM: 55 to 85%
  activity at 0.1 µM: 55 to 85%
[3]
  IC50: < 50 nM
[4]; 40 nM
  inhibition at 0.04 µM: < 30%
[4]; 200 nM
  inhibition at 0.2 µM: < 30%
[5]
  IC50: ≤ 10 nM

## [2H]C([2H])([2H])Nc1ccc(C(=O)Nc2cccc(C3CC3)n2)c(NC2CCN(C(=O)CN3CCN(c4ccc(Nc5ncc6c(C)c(C(C)=O)c(=O)n(C7CCCC7)c6n5)nc4)CC3)CC2)n1 [CPD-252, 2-((1-(2-(4-(6-((6-acetyl-8-cyclopentyl-5-methyl-7-oxo-7,8-dihydropyrido[2,3-d]pyrimidin-2-yl)amino)pyridin-3-yl)piperazin-1-yl)acetyl)piperidin-4-yl)amino)-N-(6-cyclopropylpyridin-2-yl)-6-((methyl-d3)amino)nicotinamide]
[1]
  IC50: ≥ 100 nM

## CC(=O)c1c(C)c2cnc(Nc3ccc(N4CCN(CCNC(=O)C56CC(Nc7nc(NC(C)C)ccc7C(=O)Nc7ccc(N(C)C)nn7)(C5)C6)CC4)cn3)nc2n(C2CCCC2)c1=O [CPD-506, 2-((3-((2-(4-(6-((6-acetyl-8-cyclopentyl-5-methyl-7-oxo-7,8-dihydropyrido[2,3-d]pyrimidin-2-yl)amino)pyridin-3-yl)piperazin-1-yl)ethyl)carbamoyl)bicyclo[1.1.1]pentan-1-yl)amino)-N-(6-(dimethylamino)pyridazin-3-yl)-6-(isopropylamino)nicotinamide]
[2]
  activity at 0.01 µM: > 85%
  activity at 0.1 µM: > 85%
[3]
  IC50: < 50 nM
[5]
  IC50: ≤ 10 nM

## CC(=O)c1c(C)c2cnc(Nc3ccc(CN4CCN(C(C)C(=O)N5CCC6(CCC(Nc7nc(NC(C)C)ccc7C(=O)Nc7ccc(N(C)C)nn7)C6)C5)CC4)cn3)nc2n(C2CCCC2)c1=O (stereo not drawn) [CPD-550, 2-((2-(2-(4-((6-((6-acetyl-8-cyclopentyl-5-methyl-7-oxo-7,8-dihydropyrido[2,3-d]pyrimidin-2-yl)amino)pyridin-3-yl)methyl)piperazin-1-yl)propanoyl)-2-azaspiro[4.4]nonan-7-yl)amino)-N-(6-(dimethylamino)pyridazin-3-yl)-6-(isopropylamino)nicotinamide]
[2]
  activity at 0.01 µM: > 85%
  activity at 0.1 µM: > 85%
[3]
  IC50: < 50 nM
[5]
  IC50: ≤ 10 nM

## CC(=O)c1c(C)c2cnc(Nc3ccc(CN4CCN(CC(=O)NC5CCC(Nc6nc(NC(C)C)ccc6C(=O)Nc6ccc(N(C)C)nn6)CC5)CC4)cn3)nc2n(C2CCCC2)c1=O (stereo not drawn) [CPD-473, 2-((4-(2-(4-((6-((6-acetyl-8-cyclopentyl-5-methyl-7-oxo-7,8-dihydropyrido[2,3-d]pyrimidin-2-yl)amino)pyridin-3-yl)methyl)piperazin-1-yl)acetamido)cyclohexyl)amino)-N-(6-(dimethylamino)pyridazin-3-yl)-6-(isopropylamino)nicotinamide]
[2]
  activity at 0.01 µM: > 85%
  activity at 0.1 µM: > 85%
[3]
  IC50: < 50 nM
[5]
  IC50: ≤ 10 nM

## CC(=O)c1c(C)c2cnc(Nc3ccc(N4CCN(C5CCN(C(=O)C67CC(Nc8nc(NC(C)C)ccc8C(=O)Nc8cc9n(n8)CCC9)(C6)C7)C5)CC4)cn3)nc2n(C2CCCC2)c1=O (stereo not drawn) [CPD-592, 2-((3-(3-(4-(6-((6-acetyl-8-cyclopentyl-5-methyl-7-oxo-7,8-dihydropyrido[2,3-d]pyrimidin-2-yl)amino)pyridin-3-yl)piperazin-1-yl)pyrrolidine-1-carbonyl)bicyclo[1.1.1]pentan-1-yl)amino)-N-(5,6-dihydro-4H-pyrrolo[1,2-b]pyrazol-2-yl)-6-(isopropylamino)nicotinamide]
[2]
  activity at 0.01 µM: 55 to 85%
  activity at 0.1 µM: 55 to 85%
[3]
  IC50: < 50 nM
[5]
  IC50: ≤ 10 nM

## CC(=O)c1c(C)c2cnc(Nc3ccc(CN4CCN(CC(=O)NC5CC6(C5)CC(Nc5nc(NC(C)C)ccc5C(=O)Nc5cn(C)c(C7CC7)n5)C6)CC4)cn3)nc2n(C2CCCC2)c1=O (stereo not drawn) [CPD-589, 2-((6-(2-(4-((6-((6-acetyl-8-cyclopentyl-5-methyl-7-oxo-7,8-dihydropyrido[2,3-d]pyrimidin-2-yl)amino)pyridin-3-yl)methyl)piperazin-1-yl)acetamido)spiro[3.3]heptan-2-yl)amino)-N-(2-cyclopropyl-1-methyl-1H-imidazol-4-yl)-6-(isopropylamino)nicotinamide]
[2]
  activity at 0.01 µM: 55 to 85%
  activity at 0.1 µM: 55 to 85%
[3]
  IC50: < 50 nM
[5]
  IC50: ≤ 10 nM

## CC(=O)c1c(C)c2cnc(Nc3ccc(CN4CCN(CC(=O)N5CCC6(CC(Nc7nc(NC(C)C)ccc7C(=O)Nc7ccc(N(C)C)nn7)C6)C5)CC4)cn3)nc2n(C2CCCC2)c1=O (stereo not drawn) [CPD-570, 2-((6-(2-(4-((6-((6-acetyl-8-cyclopentyl-5-methyl-7-oxo-7,8-dihydropyrido[2,3-d]pyrimidin-2-yl)amino)pyridin-3-yl)methyl)piperazin-1-yl)acetyl)-6-azaspiro[3.4]octan-2-yl)amino)-N-(6-(dimethylamino)pyridazin-3-yl)-6-(isopropylamino)nicotinamide]
[2]
  activity at 0.01 µM: > 85%
  activity at 0.1 µM: 55 to 85%
[3]
  IC50: < 50 nM
[5]
  IC50: ≤ 10 nM

## CC(=O)c1c(C)c2cnc(Nc3ccc(N4CCC5(CCN(CC(=O)N6CC7(CC(Nc8nc(NC(C)C)ccc8C(=O)Nc8cc9n(n8)CCC9)C7)C6)C5)C4)cn3)nc2n(C2CCCC2)c1=O (stereo not drawn) [CPD-529, 2-((2-(2-(7-(6-((6-acetyl-8-cyclopentyl-5-methyl-7-oxo-7,8-dihydropyrido[2,3-d]pyrimidin-2-yl)amino)pyridin-3-yl)-2,7-diazaspiro[4.4]nonan-2-yl)acetyl)-2-azaspiro[3.3]heptan-6-yl)amino)-N-(5,6-dihydro-4H-pyrrolo[1,2-b]pyrazol-2-yl)-6-(isopropylamino)nicotinamide]
[2]
  activity at 0.01 µM: > 85%
  activity at 0.1 µM: > 85%
[3]
  IC50: < 50 nM
[5]
  IC50: ≤ 10 nM

## CC(=O)c1c(C)c2cnc(Nc3ccc(N4CCN(C5CCN(C(=O)[C@H]6CC[C@H](Nc7nc(NC(C)C)ccc7C(=O)Nc7cc(C)n(C)n7)CC6)C5)CC4)cn3)nc2n(C2CCCC2)c1=O (stereo partly drawn) [CPD-478, 2-((4-(3-(4-(6-((6-acetyl-8-cyclopentyl-5-methyl-7-oxo-7,8-dihydropyrido[2,3-d]pyrimidin-2-yl)amino)pyridin-3-yl)piperazin-1-yl)pyrrolidine-1-carbonyl)cyclohexyl)amino)-N-(1,5-dimethyl-1H-pyrazol-3-yl)-6-(isopropylamino)nicotinamide]
[2]
  activity at 0.01 µM: > 85%
  activity at 0.1 µM: 55 to 85%
[3]
  IC50: < 50 nM
[5]
  IC50: ≤ 10 nM

## CC(=O)c1c(C)c2cnc(Nc3ccc(N4CCN(C5CCN(C(=O)N6CCC(Nc7nc(NC(C)C)ccc7C(=O)Nc7ccc(N(C)C)nn7)CC6)C5)CC4)cn3)nc2n(C2CCCC2)c1=O (stereo not drawn) [CPD-469, 2-((1-(3-(4-(6-((6-acetyl-8-cyclopentyl-5-methyl-7-oxo-7,8-dihydropyrido[2,3-d]pyrimidin-2-yl)amino)pyridin-3-yl)piperazin-1-yl)pyrrolidine-1-carbonyl)piperidin-4-yl)amino)-N-(6-(dimethylamino)pyridazin-3-yl)-6-(isopropylamino)nicotinamide]
[2]
  activity at 0.01 µM: ≤ 55%
  activity at 0.1 µM: ≤ 55%
[3]
  IC50: < 50 nM
[5]
  IC50: ≤ 10 nM
